Measurements from patent publication US12303474B2, “S-enantiomerically enriched compositions of beta blockers for treating amyotrophic lateral sclerosis” (priority 2013, dated 2025).
Like-named read-outs stand apart in the source and are kept apart here.

What was measured:
[1] = system: G93A SOD1 B6SJL hybrid (G93A) model; assay: Body weight and body composition (lean mass, fat mass; NMR scans) in G93A SOD1 transgenic mice; type: in vivo; conditions: 10 mg/kg/d; for Average Δ body weight / Average Δ fat mass / Average Δ lean mass: per day alive after disease onset
Description: (§1) Transgenic mice over-expressing a high copy number (25 copies) of mutated human SOD1 gene with a G93A point mutation, i.e., B6SJL-TgN [SOD1-G93A]1 Gur (G1H-G93A transgenic mice, JR2726; Hemizygote) (Gurney M E, et al., Science, 264, 1772-1775, 1994) (“G93A SOD1 B6SJL hybrid (G93A) model”), were used.
[…] […] There were 16 mice in the S-oxprenolol group.
The primary endpoint was survival, humanely defined as the ability of the animal to right itself in 30 seconds after being laid on its side. Secondary endpoints were body weight, body composition, spontaneous activity and food intake. Body weight of the animals was assessed weekly until onset of disease. Additionally, body composition (fat mass and lean body mass) was assessed using NMR scans (EchoMRI-100, Echo Medical Systems, Houston, USA) every 4 days. After onset of disease, body weight and body composition were assessed every two days until the end of the study. All personal handling the animals was strictly blinded to the randomized treatment allocation.
To study the effect of S-oxprenolol on body weight, body weight was monitored over time.
To study the effect of the test compounds on lean body mass, lean mass was determined at the end of the study.
To study the effect of the test compounds on fat mass, the fat mass were determined at the end of the study.
To study the effect of S-oxprenolol on body weight, body weight was monitored over time. […] The number of all mice in the population is indicated as “n” in at the bottom of FIGS. 20A-20C.
To study the effect of the test compounds on lean body mass, lean mass was determined at the end of the study. […] The number of all mice in the population is indicated as “n” in at the bottom of FIGS. 20D-20F.
To study the effect of the test compounds on fat mass, the fat mass were determined at the end of the study. […] The number of all mice in the population is indicated as “n” in at the bottom of FIGS. 20G-20I.

[2] = system: G93A SOD1 B6SJL hybrid (G93A) model; conditions: 10 mg/kg/d; for Heart / gastrocnemius: end of study;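 for HR survival (FIG. 14): dosing began after ALS onset in G93A SOD1 mice, with survival as the endpoint, defined humanely as the animal failing to regain upright posture within 30 s when placed sideways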;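 for HR survival (FIG. 16): dosing began after ALS onset in G93A SOD1 mice, with survival as the endpoint, defined humanely as the animal failing to regain upright posture within 30 s when placed sideways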
Protocol: as §1
To study the effect of the test compounds on skeletal muscle atrophy, the skeletal muscle mass were determined at the end of the study.
The number of all mice in the population is indicated as “n” in at the bottom of FIGS. 21A-21C.
The number of all mice in the population is indicated as “n” in at the bottom of FIGS. 20D-20F.
The number of all mice in the population is indicated as “n” in at the bottom of FIGS. 21G-21I.

[3] = system: G93A SOD1 B6SJL hybrid (G93A) model; conditions: 10 mg/kg/day vs. placebo;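 for HR survival (FIG. 14): dosing began after ALS onset in G93A SOD1 mice, with survival as the endpoint, defined humanely as the animal failing to regain upright posture within 30 s when placed sideways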;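 for HR survival (FIG. 16): dosing began after ALS onset in G93A SOD1 mice, with survival as the endpoint, defined humanely as the animal failing to regain upright posture within 30 s when placed sideways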
[4] = system: G93A SOD1 B6SJL hybrid (G93A) model; assay: Disease progression score (JAX SOP) in G93A SOD1 transgenic mice; conditions: 10 mg/kg/day vs. placebo
Description: The disease progression score is based on the JAX SOP (Ludolph A C, Bendotti C, Blaugrund E, Hengerer B, Loffler J P, Martin J, Meininger V, Meyer T, Moussaoui S, Robberecht W, Scott S, Silani V, Van Den Berg L H (ENMC Group For The Establishment Of Guidelines For The Conduct Of Preclinical And Proof Of Concept Studies In ALS/MND Models). 2007, which is incorporated by reference).

CC(C)NCC(O)COc1cccc2ccccc12 (centres unmarked) [propanolol]
Δ body weight ([1]; all mice): -5.89 ± 0.42 g | Δ fat mass ([1]; all mice): -1.82 ± 0.25 g | Δ lean mass ([1]; all mice): -4.89 ± -0.26 g | Average Δ body weight ([1]; all mice): -127.6 ± 10.6 mg/day | Average Δ fat mass ([1]; all mice): -43.9 ± 5.5 mg/day | Δ body weight ([1]; female mice): -5.66 ± 0.66 g | Δ fat mass ([1]; female mice): -1.65 ± 0.44 g | Δ lean mass ([1]; female mice): -4.70 ± 0.37 g | Average Δ body weight ([1]; female mice): -111.3 ± 13.2 mg/day | Average Δ fat mass ([1]; female mice): -30.9 ± 8.3 mg/day | Average Δ lean mass ([1]; female mice): -91.2 ± 8.3 mg/day | Δ body weight ([1]; male mice): -6.11 ± 0.54 g | Δ fat mass ([1]; male mice): -1.99 ± 0.26 g | Δ lean mass ([1]; male mice): -5.06 ± 0.37 g | Average Δ body weight ([1]; male mice): -142.7 ± 15.9 mg/day | Average Δ fat mass ([1]; male mice): -51.9 ± 6.9 mg/day | Average Δ lean mass ([1]; male mice): -118.6 ± 10.6 mg/day | BAT (brown adipose tissue) ([2]; all mice): 45.1 ± 2.9 mg | EDL (extensor digitorum longus) ([2]; all mice): 7.11 ± 0.37 mg | soleus ([2]; all mice): 5.60 ± 0.28 mg | Heart ([2]; all mice): 104.0 ± 3.2 mg | gastrocnemius ([2]; all mice): 52.4 ± 3.3 mg | BAT (brown adipose tissue) ([2]; female mice): 41.2 ± 2.2 mg | EDL (extensor digitorum longus) ([2]; female mice): 6.21 ± 0.37 mg | soleus ([2]; female mice): 5.57 ± 0.43 mg | Heart ([2]; female mice): 93.8 ± 2.7 mg | gastrocnemius ([2]; female mice): 40.6 ± 3.3 mg | BAT (brown adipose tissue) ([2]; male mice): 48.7 ± 5.1 mg | EDL (extensor digitorum longus) ([2]; male mice): 7.94 ± 0.55 mg | soleus ([2]; male mice): 5.63 ± 0.38 mg | Heart ([2]; male mice): 113.5 ± 4.6 mg | gastrocnemius ([2]; male mice): 63.3 ± 3.6 mg | HR survival (FIG. 14) ([3]; all mice): 0.73 | HR survival (FIG. 16) ([3]; female mice): 0.71 | HR survival (FIG. 15) ([3]; male mice): 0.59 | HR Progression from score 1 to score 2 (FIG. 17) [4]: 0.64 | HR Progression from score 1 to score 3 (FIG. 19) [4]: 0.72 | HR Progression from score 2 to score 3 (FIG. 18) [4]: 0.99
